Measurements published in patent US12404242B2, “Compositions and methods for making and using small molecules in the treatment of cancer” (Reglagene, Inc., priority 2021, dated 2025).

Assays:
Format in all cases: cell-based, human
Conditions in all cases: 72 hours of treatment
LNCaP cells = experiment: Cell viability (AlamarBlue), LNCaP prostate cancer cells; set-up: key to EC50 (μM) in LNCaP cells: Inactive: less than 50% inhibition at the highest concentration tested at 50 μM
Protocol: (§1) In another exemplary method, half maximal effective concentration (EC50) was determined for some compounds and their isomers as disclosed herein in a variety of human cancer cell lines. In brief, cells from two prostate cancer cell lines (LNCaP, 22RV1), one glioblastoma cell line (U87), one breast cancer cell line (MCF7), a glioma cell line (LN18), a normal prostate cell line (RWPE1), and a glioblastoma cell line (T98G) were plated in a multi-well plate. After 24 hours, one of the compounds herein was added to the well at increasing concentrations. After 72 hours of treatment, cell viability was assessed using AlamrBlue® (Invitrogen) and fluorescence was read using the CLARIOstar Plus Multilabel Plate Reader (BMG Labtech). Samples were normalized to no treatment controls. EC50 values were determined using GraphPad Prism.

22RV1 cells = experiment: Cell viability (AlamarBlue), 22RV1 prostate cancer cells; set-up: key to EC50 (μM) in 22RV1 cells: Inactive: less than 50% inhibition at the highest concentration tested at 50 μM
Protocol: as §1

U87 cells = experiment: Cell viability (AlamarBlue), U87 glioblastoma cells; set-up: key to EC50 (μM) in U87 cells: Inactive: less than 50% inhibition at the highest concentration tested at 50 μM
Protocol: as §1

| EC50 (μM) in LNCaP cells (LNCaP cells) | EC50 (μM) in 22RV1 cells (22RV1 cells) | EC50 (U87 cells; Homo sapiens, U-87 MG, 72 h) | EC50 (μM) in U87 cells (U87 cells) | Compound | further results |
| --- | --- | --- | --- | --- | --- |
| Inactive | Inactive | – | – | Cc1cc(NC(=O)NC(=O)C2CCOC2)ccc1Oc1ncc(Cl)cn1 (racemic) [Compound 5, rac-1-{4-[(5-chloropyrimidin-2-yl)oxy]-3-methylphenyl}-3-[(3R)-oxolane-3-carbonyl]urea] | – |
| – | – | – | – | COC1CCC(C(=O)NC(=O)Nc2ccc(Oc3ncc(C)cn3)c(C)c2)CC1 (single isomer, unassigned) [Compound 27A, 4-methoxy-N-((3-methyl-4-((5-methylpyrimidin-2-yl)oxy)phenyl)carbamoyl)cyclohexane-1-carboxamide] | EC50 (LNCaP cells): 1.3 µM; EC50 (22RV1 cells): 2.8 µM; EC50 (U87 cells): 2.1 µM |
| – | – | – | – | COC1CCC(C(=O)NC(=O)Nc2ccc(Oc3ncc(C)cn3)c(C)c2)CC1 (single isomer, unassigned) [Compound 27B, 4-methoxy-N-((3-methyl-4-((5-methylpyrimidin-2-yl)oxy)phenyl)carbamoyl)cyclohexane-1-carboxamide] | EC50 (LNCaP cells): 9.8 µM; EC50 (22RV1 cells): 25 µM; EC50 (U87 cells): 23.3 µM |
| – | – | 5.5 µM | – | COC1CCC(C(=O)NC(=O)Nc2ccc(Oc3ccc(C(C)C)cn3)c(C)c2)CC1 (single isomer, unassigned) [Compound 34A, N-((4-((5-isopropylpyridin-2-yl)oxy)-3-methylphenyl)carbamoyl)-4-methoxycyclohexane-1-carboxamide] | EC50 (LNCaP cells; Homo sapiens, LNCaP, 72 h): 1.2 µM; EC50 (22RV1 cells; Homo sapiens, 22Rv1, 72 h): 5.9 µM |
| Inactive | Inactive | – | Inactive | COC1CCC(C(=O)NC(=O)Nc2ccc(Oc3ccc(C(C)C)cn3)c(C)c2)CC1 (single isomer, unassigned) [Compound 34B, N-((4-((5-isopropylpyridin-2-yl)oxy)-3-methylphenyl)carbamoyl)-4-methoxycyclohexane-1-carboxamide] | – |
| Inactive | Inactive | – | – | Cc1cc(NC(=O)NC(=O)C2CCCC2)ccc1Oc1ncc(Cl)cn1 [Compound 3, 1-{4-[(5-chloropyrimidin-2-yl)oxy]-3-methylphenyl}-3-cyclopentanecarbonylurea] | – |
| Inactive | Inactive | – | – | Cc1cc(NC(=O)NC(=O)C2CCOCC2)ccc1Oc1ncc(Cl)cn1 [Compound 4, 3-{4-[(5-chloropyrimidin-2-yl)oxy]-3-methylphenyl}-1-(oxane-4-carbonyl)urea] | – |
| Inactive | Inactive | – | Inactive | COC1CCC(C(=O)NC(=O)Nc2ccc(Oc3nccn3C)c(C)c2)CC1 (centres unmarked) [Compound 28, 1-(4-methoxycyclohexanecarbonyl)-3-{3-methyl-4-[(1-methyl-1H-imidazol-2-yl)oxy]phenyl}urea] | – |
| – | – | 5.3 µM | – | COC1CCC(C(=O)NC(=O)Nc2ccc(Oc3ncc(C(F)(F)F)cn3)c(C)c2)CC1 (centres unmarked) [Compound 29, 1-(4-methoxycyclohexanecarbonyl)-3-(3-methyl-4-{[5-(trifluoromethyl)pyrimidin-2-yl)oxy}phenyl)urea] | EC50 (LNCaP cells; Homo sapiens, LNCaP, 72 h): 6.5 µM; EC50 (22RV1 cells; Homo sapiens, 22Rv1, 72 h): 4.7 µM |
| – | – | 12.2 µM | – | COC1CCC(C(=O)NC(=O)Nc2ccc(Oc3ncc(C(C)C)cn3)c(C)c2)CC1 (centres unmarked) [Compound 30, 1-(4-methoxycyclohexanecarbonyl)-3-(3-methyl-4-{[5-(propan-2-yl)pyrimidin-2-yl)oxy}phenyl)urea] | EC50 (LNCaP cells; Homo sapiens, LNCaP, 72 h): 8.5 µM; EC50 (22RV1 cells; Homo sapiens, 22Rv1, 72 h): 14.4 µM |
| – | – | – | Inactive | COC1CCC(C(=O)NC(=O)Nc2ccc(Oc3ccc(C)cn3)c(C)c2)CC1 (centres unmarked) [Compound 32, 1-(4-methoxycyclohexanecarbonyl)-3-{3-methyl-4-[(5-methylpyridin-2-yl)oxy]phenyl}urea] | EC50 (LNCaP cells; Homo sapiens, LNCaP, 72 h): 34 µM; EC50 (22RV1 cells; Homo sapiens, 22Rv1, 72 h): 35 µM |
| Inactive | Inactive | – | Inactive | COC1CCC(C(=O)NC(=O)Nc2ccc(Oc3ccc(C(F)(F)F)cn3)c(C)c2)CC1 (centres unmarked) [Compound 33, 4-methoxy-N-((3-methyl-4-((5-(trifluoromethyl)pyridin-2-yl)oxy)phenyl)carbamoyl)cyclohexane-1-carboxamide] | – |
| Inactive | Inactive | 49 µM | – | COC1CC(C(=O)NC(=O)Nc2ccc(Oc3cnc(N4CCN(C)CC4)nc3)c(C)c2)C1 (centres unmarked) [Compound 35, 3-methoxy-N-((3-methyl-4-((2-(4-methylpiperazin-1-yl)pyrimidin-5-yl)oxy)phenyl)carbamoyl)cyclobutane-1-carboxamide] | – |
| – | – | 31 µM | – | COC1CCC(C(=O)NC(=O)Nc2ccc(Oc3cnc(N4CCN(C)CC4)nc3)c(C)c2)CC1 (centres unmarked) [Compound 36, 4-methoxy-N-((3-methyl-4-((2-(4-methylpiperazin-1-yl)pyrimidin-5-yl)oxy)phenyl)carbamoyl)cyclohexane-1-carboxamide] | EC50 (LNCaP cells; Homo sapiens, LNCaP, 72 h): 34 µM; EC50 (22RV1 cells; Homo sapiens, 22Rv1, 72 h): 34 µM |
| Inactive | Inactive | – | Inactive | O=C(NC(=O)C1CCC(OCC2CC2)CC1)Nc1ccc(Oc2ncc(Cl)cn2)c(F)c1 (centres unmarked) [Compound 37, N-((4-((5-chloropyrimidin-2-yl)oxy)-3-fluorophenyl)carbamoyl)-4-(cyclopropylmethoxy)cyclohexane-1-carboxamide] | – |
| Inactive | Inactive | – | Inactive | Cc1cc(NC(=O)NC(=O)C2CCC(OCC3CC3)CC2)ccc1Oc1ncc(Cl)cn1 (centres unmarked) [Compound 38, N-((4-((5-chloropyrimidin-2-yl)oxy)-3-methylphenyl)carbamoyl)-4-(cyclopropylmethoxy)cyclohexane-1-carboxamide] | – |
| Inactive | Inactive | – | Inactive | Cc1cc(NC(=O)NC(=O)C2CC(OCC3CC3)C2)ccc1Oc1nccs1 (centres unmarked) [Compound 39, 3-(cyclopropylmethoxy)-N-((3-methyl-4-(thiazol-2-yloxy)phenyl)carbamoyl)cyclobutane-1-carboxamide] | – |
| – | Inactive | – | Inactive | COC1(C(=O)NC(=O)Nc2ccc(Oc3ccc(Cl)cn3)c(C)c2)CC1 [Compound 65, N-((4-((5-chloropyridin-2-yl)oxy)-3-methylphenyl)carbamoyl)-1-methoxycyclopropane-1-carboxamide] | – |
| – | – | 1.1 µM | – | COC1CC(C(=O)NC(=O)Nc2cc(C)c(Oc3ccc(F)cn3)c(F)c2)C1 (centres unmarked) [Compound 72, N-((3-fluoro-4-((5-fluoropyridin-2-yl)oxy)-5-methylphenyl)carbamoyl)-3-methoxycyclobutane-1-carboxamide] | EC50 (22RV1 cells; Homo sapiens, 22Rv1, 72 h): 0.91 µM |
| – | – | 2.5 µM | – | COC1CC(C(=O)NC(=O)Nc2cc(C)c(Oc3ncccn3)c(F)c2)C1 (centres unmarked) [Compound 74, N-((3-fluoro-5-methyl-4-(pyrimidin-2-yloxy)phenyl)carbamoyl)-3-methoxycyclobutane-1-carboxamide] | EC50 (22RV1 cells; Homo sapiens, 22Rv1, 72 h): 1.65 µM |
| – | – | – | Inactive | COC1CCC(C(=O)NC(=O)Nc2ccc(Oc3ccc(C4CC4)cn3)c(C)c2)CC1 (centres unmarked) [Compound 75, N-((4-((5-cyclopropylpyridin-2-yl)oxy)-3-methylphenyl)carbamoyl)-4-methoxycyclohexane-1-carboxamide] | – |
| – | – | 22 µM | – | COC1CC(C(=O)NC(=O)Nc2cc(C)c(Oc3nccs3)c(F)c2)C1 (centres unmarked) [Compound 77, N-((3-fluoro-5-methyl-4-(thiazol-2-yloxy)phenyl)carbamoyl)-3-methoxycyclobutanecarboxamide] | – |
| – | – | – | Inactive | COC1CC(C)(C(=O)NC(=O)Nc2ccc(Oc3ccc(Cl)cn3)c(C)c2)C1 (centres unmarked) [Compound 79, N-((4-((5-chloropyridin-2-yl)oxy)-3-methylphenyl)carbamoyl)-3-methoxy-1-methylcyclobutane-1-carboxamide] | – |
| – | – | – | Inactive | Cc1cc(NC(=O)NC(=O)C2CC(O)C2)ccc1Oc1ccc(Cl)cn1 (centres unmarked) [Compound 80, N-((4-((5-chloropyridin-2-yl)oxy)-3-methylphenyl)carbamoyl)-3-hydroxycyclobutane-1-carboxamide] | – |
| – | – | – | Inactive | COC1CC1C(=O)NC(=O)Nc1ccc(Oc2ncc(Cl)cn2)c(C)c1 (centres unmarked) [Compound 81, N-((4-((5-chloropyrimidin-2-yl)oxy)-3-methylphenyl)carbamoyl)-2-methoxycyclopropane-1-carboxamide] | – |
| – | – | – | Inactive | COC1CC1C(=O)NC(=O)Nc1ccc(Oc2ccc(Cl)cn2)c(C)c1 (centres unmarked) [Compound 82, N-((4-((5-chloropyridin-2-yl)oxy)-3-methylphenyl)carbamoyl)-2-methoxycyclopropane-1-carboxamide] | – |
| – | – | 0.33 µM | – | COC12CC(C(=O)NC(=O)Nc3ccc(Oc4nccs4)c(C)c3)(C1)C2 [Compound 83, 3-methoxy-N-((3-methyl-4-(thiazol-2-yloxy)phenyl)carbamoyl)bicyclo[1.1.1]pentane-1-carboxamide] | – |
| – | – | 0.2 µM | – | COC12CC(C(=O)NC(=O)Nc3ccc(Oc4ccc(F)cn4)c(C)c3)(C1)C2 [Compound 89, N-((4-((5-fluoropyridin-2-yl)oxy)-3-methylphenyl)carbamoyl)-3-methoxybicyclo[1.1.1]pentane-1-carboxamide] | – |
